The text below walks through data of US8796415B2, “Inhibitors of guanine exchange factors and their use as anticancer drugs” (Centre National de la Recherche Scientifique, priority 2009, dated 2014).

Ends that are not written are not given here.

Assay [1] has as its system PC12 cells. The settings on record: Schmidt et al., 2002; cited from earlier work.
Assay [2] deals with T1, p115RhoGEF (Homo sapiens, UniProt Q92888).
T1 construct: GST (N); made in house; host or cells: baculovirus system
T1 sequence (Q92888 1-912): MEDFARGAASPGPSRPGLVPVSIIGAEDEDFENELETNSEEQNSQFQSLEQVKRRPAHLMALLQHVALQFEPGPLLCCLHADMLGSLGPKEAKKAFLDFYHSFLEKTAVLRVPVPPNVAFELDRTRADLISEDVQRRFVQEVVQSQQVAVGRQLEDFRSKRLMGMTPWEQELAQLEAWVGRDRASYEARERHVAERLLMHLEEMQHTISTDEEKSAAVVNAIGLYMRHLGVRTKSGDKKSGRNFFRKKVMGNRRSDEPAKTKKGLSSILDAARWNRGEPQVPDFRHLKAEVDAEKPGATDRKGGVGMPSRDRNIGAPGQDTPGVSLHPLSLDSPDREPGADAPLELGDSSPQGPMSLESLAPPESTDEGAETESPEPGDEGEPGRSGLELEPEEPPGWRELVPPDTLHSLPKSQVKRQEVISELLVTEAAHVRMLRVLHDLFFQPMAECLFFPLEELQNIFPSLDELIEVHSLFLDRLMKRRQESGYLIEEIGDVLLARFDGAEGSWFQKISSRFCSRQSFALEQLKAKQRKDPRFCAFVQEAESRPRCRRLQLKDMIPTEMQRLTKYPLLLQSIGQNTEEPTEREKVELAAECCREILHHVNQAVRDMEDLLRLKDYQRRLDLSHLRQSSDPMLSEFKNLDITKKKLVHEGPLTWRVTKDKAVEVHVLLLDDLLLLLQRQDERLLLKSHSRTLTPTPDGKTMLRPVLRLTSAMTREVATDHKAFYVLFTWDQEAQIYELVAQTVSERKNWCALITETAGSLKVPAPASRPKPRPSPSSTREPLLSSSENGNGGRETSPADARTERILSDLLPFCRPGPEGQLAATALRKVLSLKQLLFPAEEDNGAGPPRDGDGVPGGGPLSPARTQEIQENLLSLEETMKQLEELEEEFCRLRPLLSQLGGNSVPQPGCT
In words: mant-GTP fluorescence kinetics specificity assay, RhoA/p115RhoGEF. Format: biochemical. The settings on record: peptide 20 μM, 0.5 μM GEF, 1 μM RhoA. As to the method: (§1) Figures represent the comparison of TRIPE32G and TRIPT16M/L17S inhibition efficiency on different GTPase/RhoGEF systems, using 1 μM GTPase and 0.5 μM GEF as follows:
(§2) In each assay, the peptides were used at a concentration of 20 μM, corresponding to a 40 fold molar excess of inhibitor versus GEF. All fluorescence kinetics assays were performed using 1 μM mant-GTP. Results are expressed as Relative Fluorescence Units (RFU) versus time. The reaction performed in the absence of GEF reflects the spontaneous exchange activity of the GTPase.
(§3) Radioactive [3H]-GDP dissociation assays were performed as described (Schmidt et al., 2002). […] Inhibition efficiency is expressed as the ratio between [3H]-GDP-bound RhoA at 15 and 0 min. Apparent inhibition constants (Kiapp) of TRIP-like peptides were determined from kobs values obtained at increasing peptide concentrations using the above fluorescence nucleotide exchange assay. Kiapp was calculated from the hyperbolic fit of kobs values as a function of the inhibitor concentration as described (Zeeh et al., 2006). TRIP-like peptide specificity was assayed using mant-GTP fluorescence kinetics (λex=360 nm, λem=460 nm) in a FLX800 Microplate Fluorescence Reader (BioTek Instruments). […] The exchange reaction was initiated by addition of 1 μM RhoA or RhoG and monitored for 10 min.

For assay [3], the target named is T2, Trio DH2-PH2 (Homo sapiens, UniProt O75962).
T2 construct: made in house
In words: [3H]-GDP dissociation assay on Trio DH2-PH2. Format: biochemical. As to conditions: 0.15 μM GST-Trio DH2-PH2, 3 μM GST-TRIP inhibitors. The procedure: Each residue of the active core of TRIPα (amino acids 9-36; Schmidt et al., 2002) was mutated to alanine, except cysteines which were changed into serines. All TRIPα mutants were then tested for their inhibitory activity on Trio DH2-PH2 in [3H]-GDP dissociation assays. This analysis mapped two essential regions of TRIPα, amino acids 9-20 and 28-33, where single mutations were sufficient to impair inhibition (see table 3).
The inventors next reasoned that peptides that would bind stronger to the GEF domain may also be better at inhibiting its activity. […] These clones were then produced as GST fusions and analyzed for their inhibition of Trio DH2-PH2, using the [3H]-GDP dissociation assay. […]
An aptamer library derived from TRIPα was created by PCR-based random mutagenesis of TRIPα inserted into the yeast two-hybrid vector pPC86. […] Selected peptides were then produced as GST-fusions and analyzed for their inhibition of Trio DH2-PH2 using the [3H]-GDP dissociation assay.
Radioactive [3H]-GDP dissociation assays were performed as described (Schmidt et al., 2002). […] Inhibition efficiency is expressed as the ratio between [3H]-GDP-bound RhoA at 15 and 0 min. Apparent inhibition constants (Kiapp) of TRIP-like peptides were determined from kobs values obtained at increasing peptide concentrations using the above fluorescence nucleotide exchange assay. […]

Assay [4] deals with Dbl. In words: mant-GTP fluorescence kinetics specificity assay, RhoA/Dbl. Format: biochemical. As to conditions: peptide 20 μM, 1 μM RhoA. The procedure: as §1, §2, §3
Dbl, sequence (P10911 495-809 limits assumed): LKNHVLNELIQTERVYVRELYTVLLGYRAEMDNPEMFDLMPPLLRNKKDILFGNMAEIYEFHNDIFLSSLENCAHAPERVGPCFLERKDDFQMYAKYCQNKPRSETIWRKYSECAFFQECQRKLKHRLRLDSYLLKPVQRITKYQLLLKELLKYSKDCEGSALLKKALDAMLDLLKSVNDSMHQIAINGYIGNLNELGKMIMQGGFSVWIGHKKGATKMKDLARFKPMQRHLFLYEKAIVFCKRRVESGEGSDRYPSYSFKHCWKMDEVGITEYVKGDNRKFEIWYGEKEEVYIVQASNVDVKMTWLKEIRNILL

For the substance “AREGADGAICGYNLATLVMLGPSERVFCPLCEPCSSDIYELM [TRIPα]”, the “neurite retraction phenotype induced by Trio DH2-PH2” value in assay [1] was “reverting the neurite retraction phenotype”.

In the case of “GST-TRIPE32G (AREGADGAICGYNLATLVMLGPSERVFCPLCGPCSSDIYELM; cysteine pairing not given here; also: GST fusion)”, the “effect on exchange activity of p115RhoGEF/RhoA” value in assay [2] was “no effect”. In addition, the “Inhibition efficiency on Trio DH2-PH2 compared to TRIPα” value in assay [3] was “highest inhibition on Trio DH2-PH2”. Further, the “effect on exchange activity of Dbl/RhoA” value in assay [4] was “no effect”.

Consider GST-TRIPT16M/L17S, for which the “effect on exchange activity of p115RhoGEF/RhoA” value in assay [2] is “no effect”. Further, the “Inhibition efficiency on Trio DH2-PH2 compared to TRIPα” value in assay [3] is “highest inhibition on Trio DH2-PH2”. Further, the “effect on exchange activity of Dbl/RhoA” value in assay [4] is “no effect”.
